Experimental data as given in ChEMBL document CHEMBL1201862, “PubChem BioAssay data set” (2004).
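96-well plates; 48 h exposure; 5 concentrations. Endpoints by linear interpolation between flanking doses. Not reached: highest tested concentration assigned. GI50: concentration for 50% inhibition of growth.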 Calls of active or inactive are those of the source. No stated cut-off is given here; in the data, active = GI50 up to about 1.1 µM and inactive = higher.

Legend:
Assay in all cases: NCI anticancer screen, dose series, 48 h
IGROV-1 = system: IGROV-1
SK-OV-3 = system: SK-OV-3
HT-29 = system: HT-29
OVCAR-3 = system: OVCAR-3
Hs-578T = system: Hs-578T
UACC-62 = system: UACC-62
NCI-H226 = system: NCI-H226
SK-MEL-5 = system: SK-MEL-5
DU-145 = system: DU-145
EKVX = system: EKVX
M14 = system: M14
MDA-N = system: MDA-N
SF-539 = system: SF-539
UACC-257 = system: UACC-257
NCI-H522 = system: NCI-H522
KM12 = system: KM12
MDA-MB-435 = system: MDA-MB-435
CCRF-CEM = system: CCRF-CEM
786-0 = system: 786-0
Malme-3M = system: Malme-3M
HOP-62 = system: HOP-62
NCI/ADR-RES = system: NCI/ADR-RES
OVCAR-5 = system: OVCAR-5
ACHN = system: ACHN
OVCAR-8 = system: OVCAR-8
HCC 2998 = system: HCC 2998
A498 = system: A498
SR = system: SR
RXF 393 = system: RXF 393
MOLT-4 = system: MOLT-4
NCI-H460 = system: NCI-H460
SK-MEL-2 = system: SK-MEL-2
BT-549 = system: BT-549
NCI-H23 = system: NCI-H23
SNB-75 = system: SNB-75
UO-31 = system: UO-31
HCT-116 = system: HCT-116
T47D = system: T47D
SF-268 = system: SF-268
RPMI-8226 = system: RPMI-8226
SNB-19 = system: SNB-19
PC-3 = system: PC-3
SN12C = system: SN12C
U-251 = system: U-251
K562 = system: K562
HCT-15 = system: HCT-15
COLO 205 = system: COLO 205
HL-60 = system: HL-60
MCF7 = system: MCF7
HOP-92 = system: HOP-92
A549 = system: A549
TK-10 = system: TK-10
SW-620 = system: SW-620
SF-295 = system: SF-295
CAKI-1 = system: CAKI-1
SK-MEL-28 = system: SK-MEL-28
OVCAR-4 = system: OVCAR-4

Cc1cn(C2CC(N)C(CN)O2)c(=O)[nH]c1=O (configuration not stated)
GI50 (IGROV-1): > 100 µM (inactive) | GI50 (SK-OV-3): > 100 µM (inactive) | GI50 (HT-29): > 100 µM (inactive) | GI50 (OVCAR-3): > 100 µM (inactive) | GI50 (Hs-578T): > 100 µM (inactive) | GI50 (UACC-62): > 100 µM (inactive) | GI50 (NCI-H226): 40.6 µM (inactive) | GI50 (SK-MEL-5): > 100 µM (inactive) | GI50 (DU-145): > 100 µM (inactive) | GI50 (EKVX): > 100 µM (inactive) | GI50 (M14): > 100 µM (inactive) | GI50 (MDA-N): 35.6 µM (inactive) | GI50 (SF-539): > 100 µM (inactive) | GI50 (UACC-257): > 100 µM (inactive) | GI50 (NCI-H522): > 100 µM (inactive) | GI50 (KM12): > 100 µM (inactive) | GI50 (MDA-MB-435): > 100 µM (inactive) | GI50 (CCRF-CEM): > 100 µM (inactive) | GI50 (786-0): > 100 µM (inactive) | GI50 (Malme-3M): > 100 µM (inactive) | GI50 (HOP-62): > 100 µM (inactive) | GI50 (NCI/ADR-RES): > 100 µM (inactive) | GI50 (OVCAR-5): > 100 µM (inactive) | GI50 (ACHN): > 100 µM (inactive) | GI50 (OVCAR-8): > 100 µM (inactive) | GI50 (HCC 2998): > 100 µM (inactive) | GI50 (A498): > 100 µM (inactive) | GI50 (SR): > 100 µM (inactive) | GI50 (RXF 393): > 100 µM (inactive) | GI50 (MOLT-4): > 100 µM (inactive) | GI50 (NCI-H460): > 100 µM (inactive) | GI50 (SK-MEL-2): > 100 µM (inactive) | GI50 (BT-549): > 100 µM (inactive) | GI50 (NCI-H23): > 100 µM (inactive) | GI50 (SNB-75): 38.5 µM (inactive) | GI50 (UO-31): > 100 µM (inactive) | GI50 (HCT-116): > 100 µM (inactive) | GI50 (T47D): 37.8 µM (inactive) | GI50 (SF-268): > 100 µM (inactive) | GI50 (RPMI-8226): > 100 µM (inactive) | GI50 (SNB-19): > 100 µM (inactive) | GI50 (PC-3): > 100 µM (inactive) | GI50 (SN12C): 80.7 µM (inactive) | GI50 (U-251): > 100 µM (inactive) | GI50 (K562): > 100 µM (inactive) | GI50 (HCT-15): > 100 µM | GI50 (COLO 205): > 100 µM (inactive) | GI50 (HL-60): > 100 µM (inactive) | GI50 (MCF7): > 100 µM (inactive) | GI50 (HOP-92): > 100 µM (inactive) | GI50 (A549): > 100 µM (inactive) | GI50 (TK-10): > 100 µM (inactive) | GI50 (SW-620): > 100 µM (inactive) | GI50 (SF-295): > 100 µM (inactive) | GI50 (CAKI-1): > 100 µM (inactive) | GI50 (SK-MEL-28): > 100 µM (inactive) | GI50 (OVCAR-4): > 100 µM (inactive)
